The values that follow are results of earlier work, collected in patent US10537540B2, “Pharmaceutical composition for promoting nerve injury restoration and application thereof” (priority 2012, dated 2020).

Series [1] concerns rat spinal cord injury model.
The conditions of series [2]: intravenous infusion of 5 g.

As to `Cc1c(C)c2c(c(C)c1OP(=O)([O-])OC1=C(O)[C@@H]([C@@H](O)CO)OC1=O)CC[C@@](C)(CCC[C@H](C)CCC[C@H](C)CCCC(C)C)O2.[K+]` [EPC-K1], the “Lipid peroxidation and free radicals after spinal cord injury” value in series [1] was “significantly block lipid peroxidation and remove free radicals”.

With `Cc1ncc(CO)c(CO)c1O.Cl` [vitamin B6], the Urine induced result in series [2] is “about 380 mL”.
